Experimental data from ChEMBL document CHEMBL1134789, “Design, synthesis, and modeling of novel cyclic thrombin receptor-derived peptide analogues of the Ser42-Phe-Leu-Leu-Arg46 motif sequence with fixed conformations of pharmacophoric groups: importance of a Phe/Arg/NH2 cluster for receptor activation and implications in the design of nonpeptide …” (2001).

species on record: Rattus norvegicus; test: Ratio concentration and the concentration of SFLLR-NH2 necessary for producing an equal relaxing effect on the isolated rat aortic rings; assay type: functional, Aorta

| SMILES | Relative potency |
| --- | --- |
| N=C(N)NCCCCCC(=O)N1CCC(C(=O)NCc2ccc(F)cc2)CC1 | 37.3 |
| CC(C)C[C@H](NC(=O)[C@H](CC(C)C)NC(=O)[C@H](Cc1ccccc1)NC(=O)[C@@H](N)CO)C(=O)N[C@@H](CCCN=C(N)N)C(N)=O | 1 |
| CC(C)C[C@@H]1NC(=O)[C@H](CC(C)C)NC(=O)[C@@H](Cc2ccccc2)NC(=O)[C@@H](N)CNC(=O)[C@@H](N)CCCCNC(=O)[C@H](CCCNC(=N)N)NC1=O | >500 |
| CC(C)C[C@@H]1NC(=O)[C@H](CC(C)C)NC(=O)[C@H](Cc2ccccc2)NC(=O)[C@@H](N)CNC(=O)[C@@H](N)CCCCNC(=O)[C@H](CCCN=C(N)N)NC1=O | 3.3 |
| NC(N)=NCCCCCC(=O)N1CCN(C(=O)C(N)Cc2ccccc2)CC1 (configuration not stated) | 32.8 |
| N=C(N)NCCCCCC(=O)NCCCCNC(=O)Cc1ccccc1 | 68 |
| N=C(N)NCCCCCC(=O)NCCCCNC(=O)Cc1ccc(F)cc1 | 50.6 |
